Laboratory results from patent publication US10004718B2, “Erythropoietin expression promoter” (TOHOKU UNIVERSITY, priority 2012, dated 2018).

Experiments:
Leigh cells = test: Cell death caused by oxidative stress (BSO) in Leigh syndrome patient fibroblasts; assay type: cell-based, human; details: compound 10 μM, 4 days after BSO treatment
Method: In Examples 2 to 7 and Reference Example 1 below, an erythropoietin-producing human hepatocellular carcinoma cell Hep3B (obtained from ATCC [American Type Culture Collection]) was cultured and maintained under conditions of 5% CO2/20% O2 and 37° C. in an RPMI1640 (manufactured by Life Technologies, Inc./GIBCO) medium containing 100 U/mL penicillin (manufactured by Life Technologies, Inc./GIBCO), 100 μg/mL streptomycin (manufactured by Life Technologies, Inc./GIBCO), and 10% fetal bovine serum (FBS) (manufactured by Life Technologies, Inc./GIBCO) (hereinafter, referred to as “RPMI1640 common medium 1”). In Example 15 below, Leigh syndrome patients were subjected to skin biopsy to obtain skin fibroblast cells, which were then primarily cultured under conditions of 5% CO2/20% O2 and 37° C. in a DMEM low glucose (manufactured by Life Technologies, Inc./GIBCO) medium containing 100 U/mL penicillin (manufactured by Life Technologies, Inc./GIBCO), 100 μg/mL streptomycin (manufactured by Life Technologies, Inc./GIBCO), and 1% FBS (manufactured by Life Technologies, Inc./GIBCO) (hereinafter, referred to as “DMEM low glucose common medium”) to isolate cells (Leigh cells). In Example 13 below, a human kidney-derived cell line HK-2 (obtained from ATCC) was cultured and maintained under conditions of 5% CO2/20% O2 and 37° C. in a DMEM/F12 (manufactured by Life Technologies, Inc./GIBCO) medium containing 100 U/mL penicillin (manufactured by Life Technologies, Inc./GIBCO), 100 μg/mL streptomycin (manufactured by Life Technologies, Inc./GIBCO), and 10% fetal bovine serum (manufactured by Life Technologies, Inc./GIBCO) (hereinafter, referred to as “DMEM/F12 common medium”). In Example 14 below, a rat islet of Langerhans-derived cell line ISN-1e (kindly provided by Hisamitsu Ishihara, Nihon University School of Medicine) was cultured and maintained under conditions of 5% CO2/20% O2 and 37° C. in an RPMI1640 (manufactured by Life Technologies, Inc./GIBCO) medium containing 10 mM HEPES (manufactured by Sigma-Aldrich Corp.), 2 mM glutamine (manufactured by Sigma-Aldrich Corp.), 50 μM β-mercaptoethanol (manufactured by Sigma-Aldrich Corp.), 100 U/mL penicillin (manufactured by Life Technologies, Inc./GIBCO), 100 μg/mL streptomycin (manufactured by Life Technologies, Inc./GIBCO), and 10% FBS (manufactured by Life Technologies, Inc./GIBCO) (hereinafter, referred to as “RPMI1640 common medium 2”).
The Leigh cells were seeded at 4×10^4 cells/well to a 24-well cell culture plate and then cultured for 24 hours. The glutathione synthesis inhibitor BSO (L-buthionine sulphoximine) (manufactured by Sigma-Aldrich Corp.) was mixed at […] into a medium. After culture for 24 hours in the presence of BSO, each of 5 types of compounds (compounds #2, 4, 5, 21, and 35) was mixed at 10 μM into the medium. After culture for 4 days in the presence of these 5 types of compounds, the number of live cells was measured using Cell Counting Kit-8 (manufactured by Dojindo Laboratories) to calculate the survival rate of the cells (“BSO+#2”, “BSO+#4”, “BSO+#5”, “BSO+#21”, and “BSO+#35” of FIG. 17). […]

[1] = test system: mouse erythropoietin gene promoter; test: Luciferase reporter assay of erythropoietin gene promoter in Hep3B cells; assay type: cell-based; details: for effect on erythropoietin gene promoter transcriptional activity compared with HIF activator FG-4592: compound 10 μM vs FG-4592 10 μM, 20% O2; for transcription level of the erythropoietin gene promoter: compound 10 μM, 20% O2, 48 hours, vs 20% O2/DMSO
Method: A plasmid vector HE-mPro-luc for luciferase assay on the promoter activity of the 5′ upstream transcriptional regulatory region of the mouse erythropoietin gene was prepared by cleaving, with restriction enzymes XbaI and SacI, a region having a length from −571 to +53 bp starting at the translation initiation site of exon 1 of the mouse erythropoietin gene, and inserting this region to a luciferase reporter vector pXP2 (Nordeen S K. BioTechniques. 6: […], 1988).
The Hep3B cells were adjusted to 10×10^4 cells/well in a 24-well cell culture plate and subcultured. Under microscopy, the Hep3B cells that reached a cell density of 70 to 80% were transfected with the plasmid DNA for luciferase reporter assay. The composition of a solution for transfection was prepared by mixing 2 μg of HE-mPro-luc, 50 ng of pRh-TK (manufactured by Promega K.K.), and 2 μl of Lipofectamine 2000 (manufactured by Invitrogen Corp.) with 100 μl of OptiMEM-I (manufactured by Life Technologies, Inc./GIBCO) per well, followed by incubation at room temperature for 20 minutes. The solution was added to the Hep3B cells in the 24-well cell culture plate preincubated in 0.5 ml of serum-free OptiMEM-I medium, and then incubated for 4 hours without serum and antibiotics under conditions of 37° C. and 5% CO2/20% O2. Then, the medium was replaced with RPMI1640 common medium 1 supplemented with each of 5 types of compounds (compounds #2, 4, 5, 18, and 21) at a concentration of 10 μM, followed by further incubation for 48 hours under conditions of 37° C. and 5% CO2/20% O2. Then, the medium was replaced with 0.5 ml of serum-free PBS, and the cells were gently washed, followed by the removal of PBS by suction. This operation was carried out twice. Then, 100 μl of passive lysis buffer (manufactured by Promega K.K.) was added thereto, and the cells were lysed by mixing at room temperature for 20 minutes. Hep3B cells cultured in the absence of the compound (DMSO added [1%]) (“20% O2/DMSO” of FIG. 3) were used as a negative control. Hep3B cells cultured in the presence of an HIF activator (FG-4592 [10 μM]) (“20% O2/FG4592” of FIG. 3) and Hep3B cells cultured under hypoxia (1% O2) conditions and in the absence of the compound (DMSO added [1%]) (“1% O2/DMSO” of FIG. 3) were used as positive controls.
Dual Luciferase Reporter Assay System (manufactured by Promega K.K.) was used in the luciferase reporter assay. The amounts of firefly and Renilla luciferases were measured using a luminometer Lumat LB9507 (manufactured by BERTHOLD TECHNOLOGIES GmbH & Co. KG). The amount of Fire fly luciferase was divided by the amount of Renilla luciferase to calculate the transcriptional activity of the erythropoietin gene.

O=C(CC(C(=O)O)c1c[nH]c2ccccc12)c1ccc(F)cc1 (stereo not drawn) [compound #4, 4-(4-Fluorophenyl)-2-(1H-indol-3-yl)-4-oxo-butanoic acid]
cell death of the Leigh cells by BSO (Leigh cells): efficiently suppress the cell death
effect on erythropoietin gene promoter transcriptional activity compared with HIF activator FG-4592 [1]: superior to the effect of the existing HIF activator (FG-4592)
transcription level of the erythropoietin gene promoter [1]: increase the transcription level

O=C(O)C(CCCC(F)(F)C(F)(F)F)c1c[nH]c2ccccc12 (stereo not drawn) [compound #21, α-(4,4,5,5,5-Pentafluoro-1-pentyl)-3-indoleacetic acid]
cell death of the Leigh cells by BSO (Leigh cells): efficiently suppress the cell death
effect on erythropoietin gene promoter transcriptional activity compared with HIF activator FG-4592 [1]: superior to the effect of the existing HIF activator (FG-4592)
transcription level of the erythropoietin gene promoter [1]: increase the transcription level

O=C(CC(C(=O)O)c1c[nH]c2ccccc12)c1ccc(F)cc1F (stereo not drawn) [compound #5, 4-(2,4-Difluorophenyl)-2-(1H-indol-3-yl)-4-oxo-butanoic acid]
cell death of the Leigh cells by BSO (Leigh cells): efficiently suppress the cell death
effect on erythropoietin gene promoter transcriptional activity compared with HIF activator FG-4592 [1]: superior to the effect of the existing HIF activator (FG-4592)
transcription level of the erythropoietin gene promoter [1]: increase the transcription level
